Results on 31 compounds are retold here after patent US20110071197A1, “BIS-ARYL COMPOUNDS FOR USE AS MEDICAMENTS” (priority 2008, published 2011).

One may read the inhibition as the share of the control response that was lost under treatment.

The target of one experiment is T1, Recombinant human LTC4 synthase (Homo sapiens, UniProt Q16873).
T1 construct: made in house; host or cells: Pichia pastoris
T1 sequence (Q16873 1-150): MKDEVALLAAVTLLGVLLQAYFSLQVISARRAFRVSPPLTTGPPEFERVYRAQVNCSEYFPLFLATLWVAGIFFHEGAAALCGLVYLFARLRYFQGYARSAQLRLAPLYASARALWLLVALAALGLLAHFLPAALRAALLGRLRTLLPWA
Briefly: LTC4 synthase in vitro assay (HTRF detection of LTC4). The note with it: compound concentration 3 μM; HTRF method. The class given is biochemical. The method, then:
Alternatively HTRF detection of LTC4 can be used:
In the assay, LTC4 synthase catalyses the reaction where the substrate LTA4 is converted to LTC4. Recombinant human LTC4 synthase is expressed in Piccia pastoralis and the purified enzyme is dissolved in 25 mM Tris-buffer pH 7.8 supplemented with 0.1 mM glutathione (GSH) and stored at −80° C. The assay is performed in phosphate buffered saline (PBS) pH 7.4 and 5 mM GSH in 384-well plates.
The following is added chronologically to each well: • 1. 48 μl LTC4 synthase in PBS with 5 mM GSH. The total protein concentration in this solution is 0.5 μg/ml. • 2. […] Incubation of the plate at room temperature for 10 minutes. • 4. 1 μl LTA4 (final conc. 2.5 μM). • 5. Incubation of the plate at room temperature for 5 minutes. • 6. 10 μl of the incubation mixture is analysed using homogeneous time resolved fluorescent (HTRF) detection.
(In general: Time-resolved FRET reads energy transfer from a long-lived donor to a nearby acceptor.)
As to `CCCCc1ccc(C(=O)Nc2ccc(Oc3ccc(NC(=O)c4ccccc4)cc3)cc2C(=O)O)cc1` [8:8, 5-(4-benzoylaminophenoxy)-2-(4-butylbenzoylamino)benzoic acid], the inhibition at 3 µM was 89%.
`O=C(Nc1ccc(Oc2ccc(NC(=O)c3ccc(Cl)c(Cl)c3)c(C(=O)O)c2)cc1C(=O)O)c1ccc(F)c(F)c1` [1:8, 5-[3-carboxy-4-(3,4-difluorobenz-amido)phenyloxy]-2-(3,4-dichloro-benzamido)benzoic acid]: the “% inh.” value is recorded as 99 (3 μM) %.

The same experiment, now with this note: total concentration of title compound in the assay 10 μM; HTRF method.
In the case of `O=C(Nc1ccc(Oc2ccc(NC(=O)c3ccc([N+](=O)[O-])cc3)c(C(=O)O)c2)cc1C(=O)O)c1ccc([N+](=O)[O-])cc1` [4:3, 5-[3-carboxy-4-(4-nitrobenzamido)phenyloxy]-2-(4-nitrobenzamido)benzoic acid], the inhibition at 10 µM stood at 97%.
For the compound `CCCCc1ccc(S(=O)(=O)Nc2ccc(Oc3ccc(NC(=O)c4ccc(C(F)(F)F)cc4)c(C(=O)O)c3)cc2)cc1` [Example 11:1, 5-[4-(4-butylbenzene-sulfonylamino)phenoxy]-2-(4-trifluoromethylbenzoylamino)-benzoic acid], the inhibition at 10 µM amounted to 99%.
Same read-out and setting: the figure for `O=C(O)c1cc(Nc2ccc(F)c(F)c2)cc(Oc2ccc(NC(=O)c3cccc(Cl)c3)cc2)c1` [18:5, 3-[4-(3-Chloro-benzoylamino)-phenoxy]-5-(3,4-difluoro-phenylamino)-benzoic acid] is 100%; for `COc1ccc(S(=O)(=O)N(C)c2ccc(Oc3ccc(NC(=O)c4ccccc4Cl)c(C(=O)O)c3)cc2)cc1` [11:22, 2-(2-Chloro-benzoylamino)-5-{4-[(4-methoxybenzenesulfonyl)-methylamino]phenoxy}benzoic acid] it is 95%.
In the case of `CCCCOc1ccc(S(=O)(=O)Nc2ccc(Oc3ccc(Nc4ccc(F)c(F)c4)cc3)cc2-c2nnn[nH]2)cc1` [Example 32:3, 4-Butoxy-N-[4-[4-(3,4-difluorophenyamino)phenoxy]-2-(tetrazol-5-yl)phenyl]-benzenesulfonamide], the “% inh.” value is recorded as 98%.
`CC(C)Oc1ccc(C(=O)Nc2ccc(Oc3ccc(NC(=O)c4cc(Cl)ccc4O)c(CC(=O)O)c3)cc2C(=O)O)cc1` [6:3, 5-[3-carboxymethyl-4-(5-chloro-2-hydroxybenzoylamino)phenoxy]-2-(4-isopropoxybenzoyl-amino)benzoic acid]: the inhibition at 10 µM was 100%.
As for `CCCCOc1ccc(S(=O)(=O)Nc2ccc(Oc3ccc(N(C)C(=O)c4ccccc4)c(C(=O)O)c3)cc2)cc1` [11:9, 2-(benzoylmethylamino)-5-[4-(4-butoxybenzenesulfonylamino)-phenoxy]benzoic acid], the inhibition at 10 µM was found to be 89%.
As for `CCCCN(c1ccc(Oc2ccc(Nc3ccc(Cl)cc3)c(C(=O)O)c2)cc1)c1ccc(F)c(F)c1` [24:2], the “% inh.” value is 95%.
Regarding `CC(C)Oc1ccc(C(=O)Nc2ccc(Oc3ccc(NC(=O)c4ccccc4)cc3)cc2CC(=O)O)cc1` [17:3, [5-(4-benzoylamino-phenoxy)-2-(4-isopropoxy-benzoyl-amino)-phenyl]-acetic acid], the inhibition at 10 µM is 87%.
Same read-out and setting: then `O=C(NS(=O)(=O)c1ccc(F)cc1)c1cccc(Oc2ccc(Nc3ccc(Cl)cc3)c(C(=O)O)c2)c1` [20:8, 5-[3-(4-Fluorobenzenesulfonyl-aminocarbonyl)-phenoxy]-2-(4-chloro-phenylamino)-benzoic acid], with 96%.
With `O=C(Nc1ccc(Oc2ccc(NC(=O)c3cc(Cl)ccc3F)c(C(=O)O)c2)cc1C(=O)O)c1cccc(Cl)c1` [2:2, 5-[3-carboxy-4-(3-chloro-6-fluorobenz-amido)phenyloxy]-2-(3-chlorobenz-amido)benzoic acid], the “% inh.” value was found to be 100%.
As to `COc1ccc(S(=O)(=O)N(C)c2ccc(Oc3ccc(NC(=O)c4ccc(Cl)cc4OC)c(C(=O)O)c3)cc2)cc1` [11:17, 2-(4-Chloro-2-methoxy-benzoylamino)-5-{4-[(4-methoxy-benzenesulfonyl)-methyl-amino]-phenoxy}-benzoic acid], the inhibition at 10 µM was 97%.
In the case of `CCCCOc1ccc(S(=O)(=O)Nc2ccc(Oc3cccc(S(=O)(=O)Nc4ccc(F)c(F)c4)c3)cc2C(=O)O)cc1` [19:2, 2-(4-Butoxy-benzenesulfonylamino)-5-[3-(3,4-difluoro-phenylsufamoyl)-phenoxy]-benzoic acid], the “% inh.” value was found to be 100%.
In the case of `O=C(O)c1cc(Sc2ccc(Nc3ccc(F)c(F)c3)cc2)ccc1Nc1ccc(F)c(F)c1` [Example 14:2, 2-(3,4-difluorophenylamino)-5-[4-(3,4-difluoro-phenylamino)-phenylsulfanyl]-benzoic acid], the inhibition at 10 µM turned out to be 99%.
As for `CCCCc1ccc(C(=O)Nc2cccc(Oc3ccc(NC(=O)c4ccc(C(F)(F)F)cc4F)c(C(=O)O)c3)c2)cc1` [10:4, 5-[3-((4-(1-butyl)benzoyl)amino)-phenoxy]-2-(2-fluoro-4-trifluoro-methylbenzoylamino)benzoic acid], the “% inh.” value amounted to 95%.
The same measure, in the same setting: the figure for `CCCCc1ccc(C(=O)Nc2ccc(Oc3ccc(NC(=O)c4ccc(F)cc4Cl)c(C(=O)O)c3)cc2C(=O)O)cc1` [2:8, 5-[3-carboxy-4-(2-chloro-4-fluorobenz-amido)-phenyloxy]-2-(4-butylbenz-amido)benzoic acid] is 100%.
As to `CCOc1c(Cl)cc(C(F)(F)F)cc1C(=O)Nc1ccc(Oc2ccc(NC(=O)c3ccc(OC(C)C)cc3)c(C(=O)O)c2)cc1CC(=O)O` [6:7, 5-[3-carboxymethyl-4-(3-chloro-2-ethoxy-5-tri-fluoromethylbenzoyl-amino)phenoxy]-2-(4-isopropoxybenzoyl-amino)benzoic acid], the inhibition at 10 µM worked out at 100%.
For `COc1ccc(S(=O)(=O)N(C)c2ccc(Oc3ccc(NC(=O)c4cc(Cl)ccc4Cl)c(C(=O)O)c3)cc2)cc1` [11:15, 2-(2,5-Dichloro-benzoylamino)-5-{4-[(4-methoxy-benzenesulfonyl)-methyl-amino]-phenoxy}-benzoic acid], the inhibition at 10 µM stood at 99%.
The same measure, in the same setting: then `CCCCc1ccc(C(=O)Nc2ccc(Oc3ccc(NC(=O)c4ccc(Cl)cc4Cl)c(CC(=O)O)c3)cc2)cc1` [17:5, [5-[4-(4-butyl-benzoylamino)-phenoxy]-2-(2,4-dichloro-benzoylamino)-phenyl]-acetic acid], with 94%.
In the case of `CCCCOc1ccc(S(=O)(=O)NC(=O)c2cccc(Oc3ccc(Nc4ccc(Cl)cc4)c(C(=O)O)c3)c2)cc1` [20:9, 5-[3-(4-Butoxy-benzenesulfonyl-aminocarbonyl)-phenoxy]-2-(4-chloro-phenylamino)-benzoic acid], the inhibition at 10 µM turned out to be 100%.
On the same count and under the same terms, then `O=C(Nc1ccc(Oc2ccc(NS(=O)(=O)c3ccc(C(F)(F)F)cc3Cl)cc2)cc1C(=O)O)c1ccc(C(F)(F)F)cc1` [11:2, 5-[4-(2-chloro-4-trifluoromethyl-benzenesulfonylamino)phenoxy]-2-(4-trifluoromethylbenzoyl-amino)benzoic acid], with 97%; and `COc1ccc(S(=O)(=O)N(C)c2ccc(Oc3ccc(NC(=O)c4cccc(Cl)c4)c(C(=O)O)c3)cc2)cc1` [11:14, 2-(3-Chloro-benzoylamino)-5-{4-[(4-methoxy-benzenesulfonyl)-methyl-amino]-phenoxy}-benzoic acid], with 100%; and `CCCCc1ccc(C(=O)Nc2ccc(Oc3ccc(NC(=O)c4cc(OC)cc(OC)c4)cc3)cc2C(=O)O)cc1` [8:9, 2-(4-butylbenzoylamino)-5-[4-(3,5-dimethoxybenzoylamino)-phenoxy]benzoic acid], with 88%.
The same measure, in the same setting: the figure for `O=C(Nc1ccc(Sc2ccc(NC(=O)c3ccc(C(F)(F)F)cc3)c(C(=O)O)c2)cc1C(=O)O)c1ccc(C(F)(F)F)cc1` [13:3, 2-(4-(trifluoromethyl)-benzamido)-5-((4-(4-(trifluoromethyl)benzamido)-3-carboxyphenyl)sulfanyl)benzoic acid] is 99%; for `CCCCOc1ccc(S(=O)(=O)Nc2ccc(Oc3cccc(NCc4cccc(Cl)c4Cl)c3)cc2C(=O)O)cc1` [23:3, 2-(4-Butoxybenzenesulfonylamino)-5-[3-(2,3-dichlorobenzylamino)-phenoxy]benzoic acid] it is 98%.
As to `CN(C(=O)c1ccc(C(C)(C)C)cc1)c1ccc(Oc2ccc(NC(=O)c3ccc(Cl)cc3Cl)c(C(=O)O)c2)cc1` [9:3, 5-(4-((N-methyl)-4-tert-butylbenz-amido)phenoxy)-2-(2,4-dichlorobenz-amido)benzoic acid], the “% inh.” value turned out to be 99%.
On to `O=C(O)c1cc(Nc2ccc(F)c(F)c2)cc(Oc2ccc(Nc3ccc(Cl)cc3)cc2)c1` [18:2, 3-[4-(4-Chloro-phenylamino)-phenoxy]-5-(3,4-difluoro-phenylamino)-benzoic acid], for which the inhibition at 10 µM amounted to 97%.
The same measure, in the same setting: the figure for `O=C(O)c1cc(Oc2ccc(Nc3ccc(F)c(F)c3)cn2)ccc1Nc1ccc(F)c(F)c1` [Example 33:1, 2-(3,4-Difluorophenylamino)-5-[5-(3,4-difluorophenylamino)pyridin-2-yloxy]-benzoic acid] is 97%; for `COc1ccc(S(=O)(=O)N(C)c2ccc(Oc3ccc(NC(=O)c4ccc(Cl)cc4)c(C(=O)O)c3)cc2)cc1` [11:13, 2-(4-chlorobenzoylamino)-5-{4-[(4-methoxybenzenesulfonyl)-methylamino]phenoxy}benzoic acid] it is 99%.
